Among the data in US9283222B2 (priority 2006, dated 2016) are Ki values, retold here.

As usually defined, the Ki is the equilibrium dissociation constant of an inhibitor or competing ligand from its target.

The assay addresses Recombinant Human Poly(ADP-Ribose) Polymerase (PARP), PARP-1 (Homo sapiens (Human), UniProt P09874). To be noted: read-out: PARP-1 (Ki); Table 1; text calls the values EC50s.

Recombinant Human Poly(ADP-Ribose) Polymerase (PARP), PARP-1, sequence (P09874 whole entry): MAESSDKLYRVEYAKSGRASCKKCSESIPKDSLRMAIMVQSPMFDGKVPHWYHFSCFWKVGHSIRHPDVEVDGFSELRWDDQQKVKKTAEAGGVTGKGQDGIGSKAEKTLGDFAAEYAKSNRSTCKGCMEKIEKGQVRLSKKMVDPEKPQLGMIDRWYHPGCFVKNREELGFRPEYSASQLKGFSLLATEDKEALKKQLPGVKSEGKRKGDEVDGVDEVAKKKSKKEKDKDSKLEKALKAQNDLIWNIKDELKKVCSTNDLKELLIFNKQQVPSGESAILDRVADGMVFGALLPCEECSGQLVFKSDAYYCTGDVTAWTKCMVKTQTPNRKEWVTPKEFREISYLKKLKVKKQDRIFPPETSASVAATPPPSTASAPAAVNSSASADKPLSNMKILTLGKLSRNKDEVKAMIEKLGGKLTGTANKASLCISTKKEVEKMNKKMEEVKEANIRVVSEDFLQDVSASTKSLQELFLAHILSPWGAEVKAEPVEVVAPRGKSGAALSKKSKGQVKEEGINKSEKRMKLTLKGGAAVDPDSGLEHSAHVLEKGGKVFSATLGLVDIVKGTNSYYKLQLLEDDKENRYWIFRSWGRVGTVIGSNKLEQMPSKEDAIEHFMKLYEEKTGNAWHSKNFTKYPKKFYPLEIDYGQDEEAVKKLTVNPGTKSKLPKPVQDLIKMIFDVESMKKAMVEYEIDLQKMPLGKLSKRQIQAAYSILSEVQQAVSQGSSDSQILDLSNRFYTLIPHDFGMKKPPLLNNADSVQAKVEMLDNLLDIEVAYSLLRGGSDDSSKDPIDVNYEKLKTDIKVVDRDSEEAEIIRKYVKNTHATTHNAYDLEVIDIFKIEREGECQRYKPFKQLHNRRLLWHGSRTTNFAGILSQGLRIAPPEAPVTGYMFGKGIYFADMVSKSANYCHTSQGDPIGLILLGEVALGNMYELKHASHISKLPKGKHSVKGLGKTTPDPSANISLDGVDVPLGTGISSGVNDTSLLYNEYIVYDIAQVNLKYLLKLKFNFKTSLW

As to `O=C(CN1CCN(C(=O)c2cc(Cc3n[nH]c(=O)c4c3NCCC4)ccc2F)CC1)N1CCCC1` [Example 532, 8-(4-fluoro-3-{[4-(2-oxo-2-pyrrolidin-1-ylethyl)piperazin-1-yl]carbonyl}benzyl)-2,3,4,6-tetrahydropyrido[2,3-d]pyridazin-5(1H)-one], the inhibition constant (Ki) was determined as 4 nM.
In the case of `O=C(c1cc(Cc2n[nH]c(=O)c3c2NCCC3)ccc1F)N1CCCN(C(=O)[C@@H]2CSCN2)CC1` [Example 701, 8-[4-fluoro-3-({4-[(4R)-1,3-thiazolidin-4-ylcarbonyl]-1,4-diazepan-1-yl}carbonyl)benzyl]-2,3,4,6-tetrahydropyrido[2,3-d]pyridazin-5(1H)-one], the inhibition constant (Ki) stood at 2.3 nM.
For `O=C(c1cccc(Cc2n[nH]c(=O)c3c2CCCC3)c1)N1CCC(n2c(=O)[nH]c3ccccc32)CC1` [Example 434, 4-(3-((4-(2-oxo-2,3-dihydro-1H-benzimidazol-1-yl)piperidin-1-yl)carbonyl)benzyl)-5,6,7,8-tetrahydrophthalazin-1(2H)-one], the inhibition constant Ki was 6 nM.
Turning to `Cc1ccc(NC(=O)c2cccc(Cc3n[nH]c(=O)c4c3CCCC4)c2)cc1F` [Example 339, N-(3-fluoro-4-methylphenyl)-3-((4-oxo-3,4,5,6,7,8-hexahydrophthalazin-1-yl)methyl)benzamide], the Ki came to 120 nM.
For `C[C@@H]1CN(C(=O)c2ccccc2)CCN1C(=O)c1cc(Cc2n[nH]c(=O)c3c2NCCC3)ccc1F` [Example 616, 8-(3-{[(2R)-4-benzoyl-2-methylpiperazin-1-yl]carbonyl}-4-fluorobenzyl)-2,3,4,6-tetrahydropyrido[2,3-d]pyridazin-5(1H)-one] the value was 2.3 nM; for `O=C(c1cc(Cc2n[nH]c(=O)c3c2NCCC3)ccc1F)N1CCN(S(=O)(=O)c2ccccc2)CC1` [Example 562, 8-(4-fluoro-3-{[4-(phenylsulfonyl)piperazin-1-yl]carbonyl}benzyl)-2,3,4,6-tetrahydropyrido[2,3-d]pyridazin-5(1H)-one], 0.9 nM.
For the compound `O=C(c1cnccn1)N1CCN(C(=O)c2cc(Cc3n[nH]c(=O)c4c3CCCC4)ccc2F)CC1` [Example 679, 4-(4-fluoro-3-{[4-(pyrazin-2-ylcarbonyl)piperazin-1-yl]carbonyl}benzyl)-5,6,7,8-tetrahydrophthalazin-1(2H)-one], the Ki was 1.4 nM.
As for `O=C(c1cscn1)N1CCN(C(=O)c2cc(Cc3n[nH]c(=O)c4c3NCCC4)ccc2F)CC1` [Example 705, 8-(4-fluoro-3-{[4-(1,3-thiazol-4-ylcarbonyl)piperazin-1-yl]carbonyl}benzyl)-2,3,4,6-tetrahydropyrido[2,3-d]pyridazin-5(1H)-one], the inhibition constant (Ki) was 1.4 nM.
For `O=C(c1cc(Cc2n[nH]c(=O)c3c2CCCC3)ccc1F)N1CCN(S(=O)(=O)c2ccccc2)CC1` [Example 574, 4-(4-fluoro-3-{[4-(phenylsulfonyl)piperazin-1-yl]carbonyl}benzyl)-5,6,7,8-tetrahydrophthalazin-1(2H)-one] the value was 1.3 nM.
Under `CC(C)(C)c1ccc(C(=O)Nc2cccc(Cc3n[nH]c(=O)c4c3CCCC4)c2)cc1` [Example 233, 4-tert-butyl-N-(3-((4-oxo-3,4,5,6,7,8-hexahydrophthalazin-1-yl)methyl)phenyl)benzamide] stands 158 nM; under `CCOc1ccccc1NC(=O)c1cccc(Cc2n[nH]c(=O)c3c2CCCC3)c1` [Example 354, N-(2-ethoxyphenyl)-3-((4-oxo-3,4,5,6,7,8-hexahydrophthalazin-1-yl)methyl)benzamide], 363 nM.
Under `O=C(Nc1cccc(Cc2n[nH]c(=O)c3c2CCCC3)c1)c1cccs1` [Example 196, N-(3-((4-oxo-3,4,5,6,7,8-hexahydrophthalazin-1-yl)methyl)phenyl)thiophene-2-carboxamide] stands 286 nM.
On to `CCN(CC)C(=O)C1CCCN(C(=O)c2cc(Cc3n[nH]c(=O)c4c3CCCC4)ccc2F)C1` (stereo not drawn) [Example 505, N,N-diethyl-1-{2-fluoro-5-[(4-oxo-3,4,5,6,7,8-hexahydrophthalazin-1-yl)methyl]benzoyl}piperidine-3-carboxamide], for which the Ki stood at 6 nM.
For `COc1ccc(C(=O)N2CCN(C(=O)c3cc(Cc4n[nH]c(=O)c5c4NCCC5)ccc3F)CC2)cc1` [Example 601, 8-(4-fluoro-3-{[4-(4-methoxybenzoyl)piperazin-1-yl]carbonyl}benzyl)-2,3,4,6-tetrahydropyrido[2,3-d]pyridazin-5(1H)-one] the value was 1.1 nM.
As to `Cc1ccc(C(=O)Nc2cccc(Cc3n[nH]c(=O)c4c3CCCC4)c2)cc1F` [Example 180, 3-fluoro-4-methyl-N-(3-((4-oxo-3,4,5,6,7,8-hexahydrophthalazin-1-yl)methyl)phenyl)benzamide], the Ki came to 159 nM.
On to `NC(=O)C1CCN(C(=O)c2cccc(Cc3n[nH]c(=O)c4c3CCCC4)c2)CC1` [Example 430, 1-(3-((4-oxo-3,4,5,6,7,8-hexahydrophthalazin-1-yl)methyl)benzoyl)piperidine-4-carboxamide], for which the inhibition constant (Ki) turned out to be 5 nM.
Under `O=C(c1cc(Cc2n[nH]c(=O)c3c2NCCC3)ccc1F)N1CCN(c2cccc(F)c2)CC1` [Example 547, 8-(4-fluoro-3-{[4-(3-fluorophenyl)piperazin-1-yl]carbonyl}benzyl)-2,3,4,6-tetrahydropyrido[2,3-d]pyridazin-5(1H)-one] stands 2.3 nM.
Under `N[C@H]1CC(=O)N(c2cc(Cc3n[nH]c(=O)c4c3CCCC4)ccc2F)C1=O` [Example 583, (3S)-3-amino-1-{2-fluoro-5-[(4-oxo-3,4,5,6,7,8-hexahydrophthalazin-1-yl)methyl]phenyl}pyrrolidine-2,5-dione] stands 2.3 nM.
Under `O=C(Nc1cccc(Cc2n[nH]c(=O)c3c2CCCC3)c1)C1=Cc2cc(Cl)ccc2OC1` [Example 220, 6-chloro-N-(3-((4-oxo-3,4,5,6,7,8-hexahydrophthalazin-1-yl)methyl)phenyl)-2H-chromene-3-carboxamide] stands 14 nM; under `O=C(CCc1ccc(Cl)cc1)Nc1cccc(Cc2n[nH]c(=O)c3c2CCCC3)c1` [Example 169, 3-(4-chlorophenyl)-N-(3-((4-oxo-3,4,5,6,7,8-hexahydrophthalazin-1-yl)methyl)phenyl)propanamide], 99 nM; under `CN1CCN(CCNC(=O)c2cccc(Cc3n[nH]c(=O)c4c3CCCC4)c2)CC1` [Example 59, N-(2-(4-methylpiperazin-1-yl)ethyl)-3-((4-oxo-3,4,5,6,7,8-hexahydrophthalazin-1-yl)methyl)benzamide], 24 nM.
For `CCN(CCNC(=O)c1c(F)cccc1F)C(=O)c1cc(Cc2n[nH]c(=O)c3c2CCCC3)ccc1F` [Example 762, N-{2-[(2,6-difluorobenzoyl)amino]ethyl}-N-ethyl-2-fluoro-5-[(4-oxo-3,4,5,6,7,8-hexahydrophthalazin-1-yl)methyl]benzamide], the inhibitory constant (Ki) is 1 nM.
Under `NC(=O)C1CCN(C(=O)c2cc(Cc3n[nH]c(=O)c4c3NCCC4)ccc2F)CC1` [Example 534, 1-{2-fluoro-5-[(5-oxo-1,2,3,4,5,6-hexahydropyrido[2,3-d]pyridazin-8-yl)methyl]benzoyl}piperidine-4-carboxamide] stands 2 nM.
For `O=C(c1ccc(-c2cc(Cc3n[nH]c(=O)c4c3CCCC4)ccc2F)cc1)N1CCCC1` [Example 251, 4-((6-fluoro-4′-(pyrrolidin-1-ylcarbonyl)-1,1′-biphenyl-3-yl)methyl)-5,6,7,8-tetrahydrophthalazin-1(2H)-one] the value was 446 nM.
Under `O=C(OCc1ccccc1)N1CCCN(C(=O)c2cc(Cc3n[nH]c(=O)c4c3NCCC4)ccc2F)CC1` [Example 659, benzyl 4-{2-fluoro-5-[(5-oxo-1,2,3,4,5,6-hexahydropyrido[2,3-d]pyridazin-8-yl)methyl]benzoyl}-1,4-diazepane-1-carboxylate] stands 2.5 nM.
As to `O=C(NCCc1ccccc1)c1cccc(Cc2n[nH]c(=O)c3c2CCCC3)c1` [Example 375, 3-((4-oxo-3,4,5,6,7,8-hexahydrophthalazin-1-yl)methyl)-N-(2-phenylethyl)benzamide], the inhibition constant (Ki) is 51 nM.
Under `COc1ccc(CCNC(=O)c2cccc(Cc3n[nH]c(=O)c4c3CCCC4)c2)cc1` [Example 384, N-(2-(4-methoxyphenyl)ethyl)-3-((4-oxo-3,4,5,6,7,8-hexahydrophthalazin-1-yl)methyl)benzamide] stands 40 nM; under `O=C(c1ccco1)N1CCCN(C(=O)c2cc(Cc3n[nH]c(=O)c4c3NCCC4)ccc2F)CC1` [Example 694, 8-(4-fluoro-3-{[4-(2-furoyl)-1,4-diazepan-1-yl]carbonyl}benzyl)-2,3,4,6-tetrahydropyrido[2,3-d]pyridazin-5(1H)-one], 1.7 nM.
Under `CCCN(CCC)[C@@H](C)C(=O)Nc1cccc(Cc2n[nH]c(=O)c3c2CCCC3)c1` [Example 158] stands 1590 nM; under `O=C(CCS(=O)(=O)c1ccccc1)Nc1cccc(Cc2n[nH]c(=O)c3c2CCCC3)c1` [Example 175, N-(3-((4-oxo-3,4,5,6,7,8-hexahydrophthalazin-1-yl)methyl)phenyl)-3-(phenylsulfonyl)propanamide], 21 nM.
Under `O=C(c1ccco1)N1CCN(C(=O)c2cc(Cc3n[nH]c(=O)c4c3NCCC4)ccc2F)CC1` [Example 553, 8-(4-fluoro-3-{[4-(2-furoyl)piperazin-1-yl]carbonyl}benzyl)-2,3,4,6-tetrahydropyrido[2,3-d]pyridazin-5(1H)-one] stands 0.8 nM; under `CCOc1ccccc1C(=O)Nc1cccc(Cc2n[nH]c(=O)c3c2CCCC3)c1` [Example 187, 2-ethoxy-N-(3-((4-oxo-3,4,5,6,7,8-hexahydrophthalazin-1-yl)methyl)phenyl)benzamide], 1250 nM.
With `CN1CCN(C(=O)c2cc(Cc3n[nH]c(=O)c4c3NCCC4)ccc2F)CC1=O` [Example 697, 8-{4-fluoro-3-[(4-methyl-3-oxopiperazin-1-yl)carbonyl]benzyl}-2,3,4,6-tetrahydropyrido[2,3-d]pyridazin-5(1H)-one], the Ki turned out to be 2.2 nM.
